Measurements taken from patent publication US20220117879A1, “PHOTO-PROTECTIVE PLANT-DERIVED COMPOSITION” (Ariel Scientific Innovations Ltd., priority 2019, published 2022).

How the values were obtained:
[1] = system: pro-collagen; experiment: Pro-collagen level in UVB-irradiated skin explants, ELISA; format: cell-based, human; details: following UVB radiation (FIG. 15A)
Text: (§1) Skins were obtained with permission from 30-60 year-old healthy women undergoing aesthetic abdomen surgery, after signing an informed consent. A mechanical skin press was used to section the skin to 0.8×0.8 cm^2 pieces, according to procedures described in Portugal-Cohen et al. [Exp Dermatol 2011, 20:749-755]. The skin explants were maintained in an air/liquid interface, dermal side submerged in the medium, according to procedures described in Portugal-Cohen et al. [Exp Dermatol 2011, 20:749-755] and Cohen et al. [Dead Sea and Arava Studies 2015, 7:66-74]. The human skin explants were laid in 6-well culture plates containing DMEM (Dulbecco's modified Eagle medium) supplemented with 100 units/ml penicillin and 100 μg/ml streptomycin), dermal side down in the medium and epidermis up. All samples were used after an overnight recovery.

[2] = system: human skin explants; experiment: Cyclobutane pyrimidine dimers (CPD) in epidermis cells from skin explants, ELISA; format: cell-based; details: UVB 350 mJ/cm^2, 0.01-2 μg/cm^2 (FIG. 13)
Text: as §1

[3] = system: human skin explants; experiment: UVB-induced lipid peroxidation (MDA) in skin explants, ELISA; format: cell-based; details: 0.02-2 μg/cm^2, with UVB (FIG. 10)
Text: as §1
(§2) A common feature of UVB-induced damage is the generation of ROS (reactive oxygen species), which increases DNA damage, amplifies the generation of lipid peroxidation and hampers proteins and membranes within the cells [Schuch et al., Free Rad Biol Med 2017, 107:110-124]. […] ROS generation upon UVB radiation was evaluated in skin explants both by DCFDA (dichlorofluorescin diacetate) assay, as well as by measuring lipid peroxidation (by ELISA), which is associated with ROS generation.

[4] = Antioxidant capacity by DPPH colour shift, Trolox equivalents; details: 1 weight percent solution (FIG. 11)
Text: Antioxidant capacity was further evaluated using the DPPH (diphenylpicrylhydrazyl) method. The color shift of DPPH in the presence of SH-401 and converted to units of Trolox (6-hydroxy-2,5,7,8-tetramethylchroman-2-carboxylic acid) equivalent antioxidant capacity based on a calibration curve.

[5] = system: human skin explants; experiment: Histological examination of UVB-irradiated skin explants; format: cell-based; details: UVB 350 mJ/cm^2 (FIGS. 14A-14D)
Text: as §1

[6] = system: HaCaT cells; experiment: Wound closure in confluent HaCaT cell in vitro model; format: cell-based; details: confluent HaCaT cells with induced wound, 24 hours (FIG. 16)
Experimental: The effect of SH-401 on wound healing in skin was assessed using a confluent HaCaT cell in vitro model of wound closure.

[7] = system: human skin explants; experiment: Epidermal cell viability in human skin explants, MTT assay; format: cell-based; details: topical application, entire concentration range tested (up to maximal solubility) (FIG. 8A)
Text: as §1
In order to investigate the safety and efficacy of the active compound SH-401 (isolated as described in Example 2), several experiments were performed on human skin explants, according to procedures described in the Materials and Methods section hereinabove.

[8] = system: human skin explants; experiment: UVB-induced apoptosis in epidermis of human skin explants, caspase-3 activation assay; format: cell-based; details: 24 hours after UVB 350 mJ/cm^2; 0.02-2 μg/cm^2; comparable to Ultrasol SPF 30 formulation (FIG. 8B)
Text: as §1

[9] = SPF (sun protection factor) calculated from UV absorption spectra with the Mansur equation; format: physicochemical; details: 0.01 mg/ml
Experimental: Absorption spectra were used to calculate SPF (sun protection factor) values using the Mansur equation, according to procedures described by Dutra et al. [Braz J Pharma Sci 2004, 40:381-385], using OptLabTM X software ([…] order to investigate UVB blocking properties of various plants, a large-scale screening of traditionally-used herbs which grow in the Judean Desert was performed. The leaves, twigs, branches, fruits, and roots of each tested plant were collected, dried, ground and extracted separately in ethanol, water, chloroform or propylene glycol methyl ether acetate (PMA) using a Soxhlet system.

[10] = system: human skin explants; experiment: DNA fragmentation in epidermis cells of skin explants, COMET assay; format: cell-based; details: UVB 350 mJ/cm^2, 2 μg/cm^2 (FIG. 12)
Text: as §1

[11] = Photostability of SH-401 films on PMMA slides exposed to UV radiation, SPF versus time; format: physicochemical; details: film on PMMA slide, 12 hours of exposure to UV radiation (FIG. 7)
Experimental: In order to evaluate photostability, uniform films of pure SH-401 were prepared on PMMA (polymethyl methacrylate) slides by depositing 2 ml of […] solution on the slides and evaporating the solvent. The samples were then exposed to UV radiation for various time intervals, ranging up to 25 hours. The glass plates were then immersed in a mixture of ethanol/water (2:98% v/v) and the films were dissolved ultrasonically. The UV samples were then quantified by UV-visible absorption spectroscopy and the SPF value was determined according to procedures described hereinabove and plotted as a function of time.

[12] = system: TNFα; experiment: UVB-induced TNFα hypersecretion in human skin explants, ELISA; format: cell-based; details: 24 hours after UVB 350 mJ/cm^2; 0.02-2 μg/cm^2; comparable to Ultrasol SPF 30 formulation (FIG. 8C)
Text: as §1

[13] = system: matrix metalloproteinase-1 (MMP1); experiment: MMP1 in UVB-irradiated skin explants, ELISA; format: cell-based, human; details: following UVB radiation (FIG. 15B)
Text: as §1

[14] = system: human skin explants; experiment: UVB-induced ROS generation in skin explants, DCFDA assay; format: cell-based; details: 0.02-2 μg/cm^2, with UVB (FIG. 9)
Text: as §1, §2

1,2,3,4,6-pentagalloyl-β-D-glucose [SH-401]
collagen synthesis (pro-collagen) [1]: enhanced | UVB-induced formation of cyclobutane pyrimidine dimers (CPD) [2]: reduced | UVB-induced lipid peroxidation (MDA) [3]: attenuated | Trolox equivalent antioxidant capacity (DPPH) [4]: approximately 2,310 micromole Trolox equivalent (TE) units per 100 grams | UVB-induced pyknotic sunburn cells and reduction of the epidermal layer (histology) [5]: reversed this deleterious effect of the radiation | wound closure [6]: enhanced wound closure | skin viability (MTT) [7]: did not compromise skin viability | UVB-induced apoptosis in the epidermis (caspase-3 activation) [8]: attenuated | increase of SPF value relative to the crude extract [9]: more than 10 fold | UVB-induced DNA damage (COMET) [10]: attenuated | stability towards UV radiation (change in SPF value) [11]: essentially no change in SPF value | UVB-induced TNFα hypersecretion [12]: attenuated | MMP1 activity [13]: reduced | UVB-induced ROS generation (DCFDA) [14]: attenuated
